This note sets out measurements from article PMC3581553, “New Approaches of PARP-1 Inhibitors in Human Lung Cancer Cells and Cancer Stem-Like Cells by Some Selected Anthraquinone-Derived Small Molecules” (PLoS ONE, 2013).

Where two headings read alike, the source gives them in different places. Some results are limits rather than exact numbers.

One assay concerns NCI-H23. In words: NCI-60 drug screen (SRB), NSCLC line NCI-H23. The note with it: for GI50 / CC50: Homo sapiens; for CC50: read-out: LC50 (the source's name). Type of assay: cell-based, human. How it is done: (§1) As a primary screening, seven selected compounds were submitted to the National Cancer Institute (NCI) cell lines screen for evaluation of their anticancer activity. From the data analysis, it follows that approximately 95% of the actives from the 60 cell lines screen can be identified. The detailed methods used for the 60 cell lines panel have been described elsewhere [54]–[59]. Briefly, cellular protein levels were determined after 48 hours of drug exposure by SRB colorimetry. Through the use of a time zero cell control, the cell growth can be determined for each cell line thus allowing calculations of GI50, TGI, and LC50. Comparison to plates not exposed to drug permits determination of concentration and times of exposure conferring GI50, TGI, and LC50. […] By these criteria, seven compounds reported from our compounds bank were all active and passed on for evaluation in the full panel of 60 human tumor cell lines. The panel is organized into nine subpanels representing diverse histology: leukemia, melanoma, and cancers of the lung, colon, kidney, ovary, breast, prostate, and central nervous system.

A further assay addresses T1, PARP-1 (Homo sapiens, UniProt P09874).
T1 construct: purchased
In words: PARP inhibitory assay (histone-coated plate, colorimetric). Type of assay: biochemical. The protocol: We used histone-coated 96-well plate treated with seven putative PARP-1 inhibitors or well-known PARP-1 inhibitors (3-AB), and then added PARP enzyme to each well. PARP enzyme catalyzes the NAD-dependent addition of poly (ADP-ribose) to histone, and diluted Strp-HRP could bind to PARylation histone. TACS-Sapphire™ yielded blue under the HRP existence. In order to systematically evaluate the potential anticancer activity, the compounds were tested for their cytotoxicity in vitro against 60 human cancer lines in the NCI anticancer drug screen as well as for dose response curves and telomerase activity. Cell growth was analyzed by the MTT assay, with differences between dose-response curves analyzed non-parametrically. Telomerase activity was detected by a modified version of the PCR-based assay and TRAP assay. […] However, PARP inhibitory effects had no difference at 1 and 10 µM. As described above, NSC746364, NSC746366 and NSC749232 show dose-dependency only at low concentrations. […] NSC747854 had dose-dependent PARP inhibitory manners at three different concentrations, and reached the maximum inhibitory effect of 86% at 10 µM (Table 4). […] In this investigation, we continued to focus our attention on the role of NSC747854 and to understand the basis of pharmacophore selectivity. Of particular note is the significant difference with these selected compounds, compared with that of 3-AB and PJ-34. […] An electron-rich aromatic ring system, including a carboxamide group, should have at least a hydrogen atom on the amide nitrogen. The amidinium moiety is known to contribute to the stabilization of DNA recognition element through electrostatic and hydrogen bonding interactions. Therefore, hydrogen bonds are frequently used as recognition elements due to their directionality and also due to being attractive factors to the biological activity (Figure 1). Many classes of drugs have substantial curvature, high DNA affinity, binding to the minor-groove or major-groove, interference with DNA-associated enzymes (e.g. telomerase), and Poly (ADP-ribose) polymerase, PARP. […] This approach greatly expands the utility of the substituents and related pharmacophore for the construction of drugs in general. Therefore, it is desirable to design PARP inhibitors in accordance with various anticancer parameters. It was first reported that anthraquinone analogues are potent human PARP inhibitors.
Strip wells were removed from the wrapper and 50 µl of 1X PARP Buffer was added to each well to rehydrate the histones. They were incubated at room temperature for 30 minutes. The 1X PARP buffer was removed from the wells by tapping the strip wells on paper towels. The serial dilutions of inhibitor of interest were added to appropriate wells. The diluted PARP enzyme (0.5 unit/well) was then added to the wells containing inhibitor. They were incubated for 10 minutes at room temperature. The PARP Enzyme-High Specific Activity (PARP-HAS) standard was serially diluted in cold micro-tubes with 1X PARP buffer such that the total activity was 1 unit/25 µl, 0.5 units/25 µl, 0.25 units/25 µl, 0.1 units/25 µl, 0.05 units/25 µl, 0.025 units/25 µl, and 0.01 units/25 µl, respectively. The 25 µl of each standard was added to triplicate wells. The 25 µl of 1X PARP cocktail were distributed into each well by using a multichannel pipettor. The final reaction volume is 50 µl. They were incubated along with the strip wells at room temperature for 60 minutes. The strip wells were washed 2 times with 1X PBS +0.1% Triton X-100 (200 µl/well) followed by 2 washes with 1X PBS. All the liquid was removed following each wash by tapping strip wells onto paper towels. The 50 µl diluted Strep-HRP were added per well. They were incubated at room temperature for 60 minutes. The strip wells were washed 2 times with 1X PBS +0.1% Triton X-100 (200 µl/well) followed by 2 washes with 1X PBS. All the liquid was removed following each wash by tapping strip wells onto paper towels. […]

In assay [1] the test system is Oct-4- and Nanog-overexpressed A549 clone (A3). In words: MTT cytotoxicity assay, A3 cells. Format: cell-based. The note with it: Homo sapiens, 48 h of drug exposure. The protocol: (§2) Non-small cell lung cancer cells A549 and Oct-4- and Nanog-overexpressed A549 clone (clone #3; A3), presented the properties of cancer stem-like cells, as well as epithelial-mesenchymal transdifferentiation, according to our previous study. They were grown in the same conditions as RPMI 1640 media supplemented with 10% fetal bovine serum (FBS), 100 units/mL penicillin, […] streptomycin, 1 mM sodium pyruvate, 2 mM l-glutamine and 1% non-essential amino acid (NEAA) in a humidified atmosphere with 5% CO2 at 37°C. Normal fibroblast cells HEL299 from American Type Culture Collection (ATCC) were grown in MEM media supplemented with 10% FBS, 100 units/mL penicillin, […] streptomycin, 1 mM sodium pyruvate, 2 mM l-glutamine and 1% NEAA, in a humidified atmosphere with 5% CO2 at 37°C.
(§3) The tetrazolium reagent (MTT; 3-(4,5-dimethylthiazol-2-yl)-2,5-diphenyl-tetrazolium bromide, USB) was designed to yield a colored formazan upon metabolic reduction by viable cells, [61]. Approximately 5×10^4 cells were plated onto each well of a 24-well plate and incubated in 5% CO2 at 37°C for 24 hours. To assess the in vitro cytotoxicity, each compound was dissolved in DMSO and prepared immediately before the experiments and then was diluted into the complete medium before being added to cell cultures. Test compounds were then added to the culture medium in various designated concentrations. After 48 hours, an amount of 100 µl of MTT was added to each well, and the samples were incubated at 37°C for 2 h. 100 µl DMSO was added to each well. The absorbency at 560 nm and reference absorbency at 670 nm were measured using an ELISA reader.
A general note: Formazan colour is commonly taken as a measure of viable cells.

In another assay the test system is NCI-H460. In words: NCI-60 drug screen (SRB), NSCLC line NCI-H460. The following applies: for LC50 (concentration killing 50% of cells) / GI50: Homo sapiens. Format: cell-based, human. The protocol:
as §1

Another assay deals with A549 cells. In words: MTT cytotoxicity assay, A549 cells. Format: cell-based. The following applies: Homo sapiens, 48 h of drug exposure. The protocol: as §2, §3
Setting [2] is: 48 hours drug exposure, SRB, read-out: GI50.
Where [3] appears, read: NCI in vitro 60-cell lines Drug Screen, read-out: -Log GI50 (converted).

T1 sequence (P09874 whole entry): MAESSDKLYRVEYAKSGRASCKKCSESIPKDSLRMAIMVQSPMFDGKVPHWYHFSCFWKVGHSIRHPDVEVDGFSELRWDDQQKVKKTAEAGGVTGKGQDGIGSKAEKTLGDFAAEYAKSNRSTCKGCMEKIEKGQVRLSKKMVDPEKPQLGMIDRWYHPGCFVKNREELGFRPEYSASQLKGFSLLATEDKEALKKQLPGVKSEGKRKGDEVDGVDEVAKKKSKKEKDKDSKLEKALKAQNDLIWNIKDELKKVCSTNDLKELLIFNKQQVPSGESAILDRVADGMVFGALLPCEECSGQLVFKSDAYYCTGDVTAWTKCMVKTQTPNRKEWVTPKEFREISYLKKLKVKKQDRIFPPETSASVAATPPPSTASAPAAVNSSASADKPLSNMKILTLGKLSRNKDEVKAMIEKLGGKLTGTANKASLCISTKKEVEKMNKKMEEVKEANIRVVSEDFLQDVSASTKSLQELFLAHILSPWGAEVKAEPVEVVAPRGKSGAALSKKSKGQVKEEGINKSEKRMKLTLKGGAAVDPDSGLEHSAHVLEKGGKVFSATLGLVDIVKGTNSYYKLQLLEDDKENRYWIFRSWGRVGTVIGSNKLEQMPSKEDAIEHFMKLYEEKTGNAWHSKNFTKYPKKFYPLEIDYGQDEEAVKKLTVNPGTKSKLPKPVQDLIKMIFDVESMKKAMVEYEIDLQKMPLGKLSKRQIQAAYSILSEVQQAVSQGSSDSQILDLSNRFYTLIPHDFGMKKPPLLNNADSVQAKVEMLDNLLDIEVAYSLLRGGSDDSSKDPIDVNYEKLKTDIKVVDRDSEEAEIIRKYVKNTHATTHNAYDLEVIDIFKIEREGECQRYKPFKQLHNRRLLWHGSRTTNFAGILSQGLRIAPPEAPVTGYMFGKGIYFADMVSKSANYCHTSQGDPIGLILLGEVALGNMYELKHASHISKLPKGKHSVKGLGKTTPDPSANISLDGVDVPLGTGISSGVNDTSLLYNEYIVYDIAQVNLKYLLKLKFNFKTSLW

On to `O=C(CCN1CCCC1)Nc1ccc2c(c1)C(=O)c1cc(NC(=O)CCN3CCCC3)ccc1C2=O` [NSC746366], for which the TGI (usually the concentration giving total growth inhibition) in the assay with NCI-H23 (48 hours drug exposure, SRB) is 17.3 µM; with NCI-H460 (48 hours drug exposure, SRB), greater than 100 µM. For the same compound, the GI50 – broadly, the concentration at which growth is held to half of that of the control – in the assay with NCI-H23 (setting [2]) was 2.38 µM; in the assay with NCI-H23 (setting [3]) it was 2.4 µM; in the assay with NCI-H460 (setting [2]), 2.69 µM; in the assay on NCI-H460 (setting [3]) it was 2.69 µM. Moreover, the CC50 in the assay with NCI-H23 (48 hours drug exposure, SRB) is greater than 100 µM. Moreover, at 0.1 µM the inhibition against PARP-1 was 16%. Besides, 1 µM produced 45% inhibition at PARP-1. On PARP-1 (10 µM), the inhibition (usually the percentage by which the read-out fell short of the control) at 10 µM came out at 47%. Further, the IC50 (usually the concentration needed to halve the response being measured) was determined as 5.77 µM in assay [1] and 7.76 µM in the assay with A549 cells. The LC50 (concentration killing 50% of cells) in the assay on NCI-H460 (48 hours drug exposure, SRB) is greater than 100 µM.

Regarding `CN(C)CC(=O)Nc1ccc2c(c1)C(=O)c1cc(NC(=O)CN(C)C)ccc1C2=O` [NSC746364], the TGI with NCI-H23 (48 hours drug exposure, SRB) stood at 28.1 µM; in the assay on NCI-H460 (48 hours drug exposure, SRB) it was 3.35 µM. Moreover, the GI50 was 11 µM with NCI-H23 (setting [2]), 11 µM with NCI-H23 (setting [3]), 1.37 µM with NCI-H460 (setting [2]) and 1.38 µM in the assay on NCI-H460 (setting [3]). Besides, in the assay with NCI-H23 (48 hours drug exposure, SRB), the CC50 was 71.8 µM. At PARP-1, this compound registered an inhibition at 0.1 µM of 31%. Besides, on PARP-1, 1 µM produced 54% inhibition. Also, at 10 µM the inhibition on PARP-1 (10 µM) was 56%. Also, the results for the 50% inhibitory concentration (IC50) (in assay [1]; with A549 cells) were 5.9 µM and 4.49 µM, respectively. Further, in the assay with NCI-H460 (48 hours drug exposure, SRB), the LC50 (concentration killing 50% of cells) was determined as 8.2 µM.

Regarding `CCN(CC)CCC(=O)Nc1ccc2c(c1)C(=O)c1cc(NC(=O)CCN(CC)CC)ccc1C2=O` [NSC746365], the TGI with NCI-H23 (48 hours drug exposure, SRB) was determined as 3.55 µM; in the assay with NCI-H460 (48 hours drug exposure, SRB), 4.85 µM. Also, the concentration for 50% growth inhibition (GI50) in the assay on NCI-H23 (setting [2]) was 1.53 µM; with NCI-H23 (setting [3]) it was 1.51 µM; with NCI-H460 (setting [2]) it was 1.9 µM; with NCI-H460 (setting [3]), 1.91 µM. The CC50 in the assay on NCI-H23 (48 hours drug exposure, SRB) was determined as 8.27 µM. At 0.1 µM the inhibition against PARP-1 was 50%. On PARP-1, the inhibition at 1 µM came out at 56%. This compound also registered an inhibition at 10 µM on PARP-1 (10 µM) of 51%. Also, the IC50 in assay [1] worked out at 5.21 µM; in the assay on A549 cells it was 7.66 µM. In the assay on NCI-H460 (48 hours drug exposure, SRB), this compound came in with an LC50 (concentration killing 50% of cells) greater than 100 µM.

Take `CN(C)CCCSc1nc2ccc3c(c2[nH]1)C(=O)c1ccccc1C3=O` [NSC747854]: the TGI turned out to be 19.7 µM with NCI-H23 (48 hours drug exposure, SRB) and 12.8 µM in the assay with NCI-H460 (48 hours drug exposure, SRB). The GI50 in the assay on NCI-H23 (setting [2]) is 5.73 µM; in the assay on NCI-H23 (setting [3]), 5.75 µM; with NCI-H460 (setting [2]), 2.13 µM; with NCI-H460 (setting [3]), 2.14 µM. For the same compound, in the assay on NCI-H23 (48 hours drug exposure, SRB), the CC50 amounted to 46.9 µM. Also, on PARP-1, testing at 0.1 µM gave an inhibition of 30%. The same compound registered an inhibition at 1 µM against PARP-1 of 57%. Besides, on PARP-1 (10 µM), the “PARP inhibitory activity (%)” value came to 65%. Further, the IC50 in assay [1] was found to be 5.88 µM; with A549 cells, 12.2 µM.

As for `CN1CCN(Cc2nc3ccc4c(c3[nH]2)C(=O)c2ccccc2C4=O)CC1` [NSC749235], the TGI is 30.1 µM with NCI-H23 (48 hours drug exposure, SRB) and 15.2 µM in the assay on NCI-H460 (48 hours drug exposure, SRB). Moreover, the GI50 is 10.7 µM in the assay on NCI-H23 (setting [2]), 10.7 µM in the assay with NCI-H23 (setting [3]), 3.79 µM in the assay on NCI-H460 (setting [2]) and 3.8 µM in the assay on NCI-H460 (setting [3]). Besides, the CC50 in the assay on NCI-H23 (48 hours drug exposure, SRB) was 84.8 µM. The same compound came in with an inhibition at 0.1 µM at PARP-1 of 40%. The same compound showed an inhibition at 1 µM against PARP-1 of 28%. Besides, the inhibition at 10 µM against PARP-1 (10 µM) was determined as 58%. In addition, the IC50 is 7.67 µM in assay [1] and 10.6 µM with A549 cells. Further, the LC50 (concentration killing 50% of cells) with NCI-H460 (48 hours drug exposure, SRB) came out at 45.1 µM.

For `Cc1ccc(C(=O)Nc2c(NC(=O)CCl)ccc3c2C(=O)c2ccccc2C3=O)cc1` [NSC749232], the TGI amounted to 8.28 µM in the assay on NCI-H23 (48 hours drug exposure, SRB) and 14.1 µM in the assay with NCI-H460 (48 hours drug exposure, SRB). Moreover, the GI50 with NCI-H23 (setting [2]) was 1.78 µM; with NCI-H23 (setting [3]), 1.78 µM; in the assay on NCI-H460 (setting [2]), 5.81 µM; in the assay on NCI-H460 (setting [3]) it was 5.75 µM. In addition, the CC50 with NCI-H23 (48 hours drug exposure, SRB) was 31.4 µM. Testing at 0.1 µM at PARP-1 gave an inhibition of 42%. At PARP-1, this compound showed an inhibition at 1 µM of 51%. The same compound returned an inhibition at 10 µM at PARP-1 (10 µM) of 52%. Further, the IC50 turned out to be 4.85 µM in assay [1] and 6.62 µM in the assay on A549 cells. The compound also yielded an LC50 (concentration killing 50% of cells) in the assay with NCI-H460 (48 hours drug exposure, SRB) of 34.1 µM.
